Experimental data reported in paper PMC6853232, “Discovery and evaluation of novel synthetic 5-alkyl-4-oxo-4,5-dihydro-[1,2,4]triazolo[4,3-a]quinoxaline-1-carbox-amide derivatives as anti-inflammatory agents” (Journal of Enzyme Inhibition and Medicinal Chemistry, 2019).
Values joined by “and” are separate entries in the source; they are usually repeats but may differ in a detail not shown here. Identical values can stand only once.

Tests used:
[1] = MTT assay for cell viability; format: cell-based, mouse; conditions: mouse, RAW264.7 macrophage cells, 24 h, RAW264.7 cells
Method: The RAW 264.7 mouse macrophage cell line was obtained from the China Cell Line Bank (Beijing, China). Cells were cultured in complete medium (DMEM supplemented with 10% heat-inactivated FBS, 3 mM glutamine and antibiotics (100 U/mL penicillin and 100 U/mL streptomycin)) at 37 °C in a humidified incubator containing 5% CO2 and 95% air. […]
Cell viability studies induced by synthesised compounds were evaluated by 3-(4,5-dimethylthiazol-2-yl)-2,5-diphenyltetrazolium bromide (MTT) assay. RAW264.7 macrophages were seeded in 96-well plates at a density of 5 × 10^5 cells/mL in complete medium and incubated for 24 h (100 µL/well). Then the cells were treated with different concentrations of synthesised compounds for 24 h. 150 µL MTT (5 g/L in PBS) was added to each well and the cells were further incubated for 4 h. The supernatant was removed and the cells were lysed with 150 µL/well DMSO. The optical density was measured at 570 nm on a microplate reader (Thermo Scientific, MA, USA).

[2] = test system: LPS-induced NO production in RAW264.7 macrophages; assay: Inhibition of LPS-induced NO production (Griess); format: cell-based, mouse; conditions: 10 µM
Method: The RAW 264.7 mouse macrophage cell line was obtained from the China Cell Line Bank (Beijing, China). Cells were cultured in complete medium (DMEM supplemented with 10% heat-inactivated FBS, 3 mM glutamine and antibiotics (100 U/mL penicillin and 100 U/mL streptomycin)) at 37 °C in a humidified incubator containing 5% CO2 and 95% air. Cells were treated with various concentrations of synthesised compounds for 30 min followed by stimulation with LPS ([…]).
Nitrite, a stable product of nitric oxide, was used to assess NO production. To study the effects of the isolated compounds on NO production, RAW264.7 cells were plated at 1 × 10^5 cells/well in a 96-well microplate and incubated overnight. The cells were pre-treated with various concentrations of the test compounds (3, 7.5, 10, 15, 30 or 100 µM) and further co-cultured with 1 µg/mL LPS for 24 h. Un-pre-treated and un-stimulated RAW 264.7 cells were conducted as the blank control group. At different time points, the supernatant (50 µL) was assayed with NO assay kit. The culture supernatant (50 µL) was mixed with an equal volume of the Griess reagent (1% sulphanilamide, 0.1% N-[1-naphthy] ethylenediamine dihydrochloride) and NO production were determined at 540 nm with an ELISAplate reader.

[3] = test system: carrageenan-induced paw oedema; assay: Carrageenan-induced paw oedema model; format: in vivo, rats; conditions: 25 mg/kg p.o., n = 4
Source text: The animal procedures were in strict accordance with the National Institutes of Healthy Guidelines for the Care and Use of Laboratory Animals (NIH Publication No. 85-23, revised 1996) and were approved by the Institutional Animal Care and Utilisation Committee of Yanbian University. Male albino rats weighing 280–300 gwere obtained from Animal Department of Yanbian University . They were kept in the animal house under standard condition of light and temperature with free access to food and water. The animals were randomly divided into five groups (control, D1, 6p, ibuprofen and celecoxib group) The groups with D1, 6p, ibuprofen and celecoxib were administered oral administration (p.o.) 25 mg/kg in a vehicle of 0.5% methylcellulose, respectively. The negative control group was treated with the same vehicle (0.5% methylcellulose). A solution of carrageenan (0.1 ml, 1.0% w/v in 0.9% of normal saline) was injected into the subplanter region of the left hind paw under light ether anaesthesia 1 h after oral administration (p.o.) of the test compound (at a dose level of 25 mg/kg body weight). The paw volume was measured at hourly interval for 5 h (0, 1, 3 and 5 h) and the percent inhibition of oedema was calculated using formula: %Inhibition=(Vt−Vo)control−(Vt−Vo)tested compound /(Vt−Vo)control×100 where, • Vo = volume of oedema at zero time interval. • Vt = volume of oedema at specific time interval.

[4] = test system: gastric mucosa (stomach lesions); assay: Ulcerogenic effect; format: in vivo; conditions: 25 mg/kg p.o. once a day for three days, rats
Method: The lead compound D1 and the newly synthesised compound 6p were subjected to in vivo testing to measure their ulcerogenic effect in comparison to celecoxib and ibuprofen. Male albino rats (220–250 g) divided into 5 groups (control, D1, 6p, ibuprofen and celecoxib group) of five rats each. The groups with D1, 6p, ibuprofen, and celecoxib were administered oral administration (p.o.) 25 mg/kg in a vehicle of 0.5% methylcellulose, respectively. The negative control group was treated with the same vehicle (0.5% methylcellulose). All groups were orally administered once a day for three consecutive days. Animals were sacrificed by diethyl ether 6 h after the last dose and the stomach was removed. An opening at the greater curvature was made and the stomach was cleaned by washing with cold saline and inspected with a three-time magnifying lens for any evidence of hyperaemia, haemorrhage, definite haemorrhagic erosion, or ulcer. An arbitrary scale was used to calculate the ulcer index which indicates the severity of the stomach lesions The % ulceration for each group was calculated as follows: % Ulceration = Number of animals bearing ulcer in a group/Total number of animals in the same group ×100.

melting point | Compound | viability at 24 h, 30 µM [1] | viability at 24 h, 10 µM [1] | also measured
262 to 264 °C | CCCCn1c(=O)c2nnc(C(N)=O)n2c2ccccc21 [6a, 5-butyl-4-oxo-4,5-dihydro-[1,2, 4]triazolo[4,3-a]quinoxaline-1-carboxamide] | 92.3 ± 1.53% | – | –
232 to 234 °C | CCCCCn1c(=O)c2nnc(C(N)=O)n2c2ccccc21 [6b, 5-pentyl-4-oxo-4,5-dihydro-[1,2, 4]triazolo[4,3-a]quinoxaline-1-carboxamide] | 98 ± 1.1% | – | –
239 to 241 °C | CCCCCCn1c(=O)c2nnc(C(N)=O)n2c2ccccc21 [6c, 5-hexyl-4-oxo-4,5-dihydro-[1,2, 4]triazolo[4,3-a]quinoxaline-1-carboxamide] | 99.11 ± 0.69% | – | –
231 to 233 °C | CCCCCCCn1c(=O)c2nnc(C(N)=O)n2c2ccccc21 [6d, 5-heptyl-4-oxo-4,5-dihydro-[1,2, 4]triazolo[4,3-a]quinoxaline-1-carboxamide] | 81 ± 1.1% | – | –
230 to 232 °C | CCCCCCCCn1c(=O)c2nnc(C(N)=O)n2c2ccccc21 [6e, 5-octyl-4-oxo-4,5-dihydro-[1,2, 4]triazolo[4,3-a]quinoxaline-1-carboxamide] | 99.5 ± 2.3% | – | anti-inflammatory activity (NO) within 5-alkyl derivatives 6a–6f ([2]; SAR ranking): the most active
236 to 238 °C | CCCCCCCCCn1c(=O)c2nnc(C(N)=O)n2c2ccccc21 [6f, 5-nonyl-4-oxo-4,5-dihydro-[1,2, 4]triazolo[4,3-a]quinoxaline-1-carboxamide] | 60 ± 3.4% | 99.2 ± 1.65% | –
268 to 270 °C | NC(=O)c1nnc2c(=O)n(Cc3ccccc3)c3ccccc3n12 [6g, 5-benzyl-4-oxo-4,5-dihydro-[1,2, 4]triazolo[4,3-a]quinoxaline-1-carboxamide] | 85 ± 1% | – | –
273 to 275 °C | NC(=O)c1nnc2c(=O)n(Cc3ccccc3F)c3ccccc3n12 [6h, 5-(2-fluorobenzyl)-4-oxo-4,5-dihydro-[1,2, 4]triazolo[4,3-a]quinoxaline-1-carboxamide] | 66.7 ± 1.33% | 98.5 ± 1.76% | –
276 to 278 °C | NC(=O)c1nnc2c(=O)n(Cc3cccc(F)c3)c3ccccc3n12 [6i, 5–(3-fluorobenzyl)-4-oxo-4,5-dihydro-[1,2, 4]triazolo[4,3-a]quinoxaline-1-carboxamide] | 59.3 ± 2.52% | 99.5 ± 4.17% | –
274 to 276 °C | NC(=O)c1nnc2c(=O)n(Cc3ccc(F)cc3)c3ccccc3n12 [6j, 5-(4-fluorobenzyl)-4-oxo-4,5-dihydro-[1,2, 4]triazolo[4,3-a]quinoxaline-1-carboxamide] | 48 ± 3% | 73.5 ± 2.27% | –
278 to 280 °C | NC(=O)c1nnc2c(=O)n(Cc3ccccc3Cl)c3ccccc3n12 [6k, 5-(2-chlorobenzyl)-4-oxo-4,5-dihydro-[1,2, 4]triazolo[4,3-a]quinoxaline-1-carboxamide] | 46.3 ± 2.89% | 74.6 ± 1.38% | –
269 to 271 °C | NC(=O)c1nnc2c(=O)n(Cc3cccc(Cl)c3)c3ccccc3n12 [6l, 5-(3-chlorobenzyl)-4-oxo-4,5-dihydro-[1,2, 4]triazolo[4,3-a]quinoxaline-1-carboxamide] | 51.7 ± 2.12% | 87.9 ± 5.18% | –
282 to 284 °C | NC(=O)c1nnc2c(=O)n(Cc3ccc(Cl)cc3)c3ccccc3n12 [6m, 5-(4-chlorobenzyl)-4-oxo-4,5-dihydro-[1,2, 4]triazolo[4,3-a]quinoxaline-1-carboxamide] | 44.7 ± 3.06% | 82.2 ± 1.74% | –
266 to 268 °C | COc1cccc(Cn2c(=O)c3nnc(C(N)=O)n3c3ccccc32)c1 [6n, 5-(3-methoxybenzyl)-4-oxo-4,5-dihydro-[1,2, 4]triazolo[4,3-a]quinoxaline-1-carboxamide] | 93.33 ± 0.58% | – | –
264 to 266 °C | COc1ccc(Cn2c(=O)c3nnc(C(N)=O)n3c3ccccc32)cc1 [6o, 5-(4-methoxybenzyl)-4-oxo-4,5-dihydro-[1,2, 4]triazolo[4,3-a]quinoxaline-1-carboamide] | 80.1 ± 1% | – | –
266 to 268 °C | NC(=O)c1nnc2c(=O)n(Cc3ccc(Cl)cc3Cl)c3ccccc3n12 [6q, 5-(2,4-dichlorobenzyl)-4-oxo-4,5-dihydro-[1,2, 4]triazolo[4,3-a]quinoxaline-1-carboxamide] | 56.7 ± 1.34% | 84.7 ± 6.49% | –
262 to 264 °C | NC(=O)c1nnc2c(=O)n(Cc3cccc(C(F)(F)F)c3)c3ccccc3n12 [6r, 5-(3-(Trifluoromethyl)benzyl)-4-oxo-4,5-dihydro-[1,2, 4]triazolo[4,3-a]quinox-aline-1-carboxamide] | 99.3 ± 0.6% | – | –
273 to 275 °C | NC(=O)c1nnc2c(=O)n(Cc3ccc([N+](=O)[O-])cc3)c3ccccc3n12 [6s, 5-(4-nitrobenzyl)-4-oxo-4,5-dihydro-[1,2, 4]triazolo[4,3-a]quinoxaline-1-carb-oxamide] | 80.1 ± 1.34% | – | –
298 to 300 °C | N#Cc1ccc(Cn2c(=O)c3nnc(C(N)=O)n3c3ccccc32)cc1 [6t, 5-(4-cyanobenzyl)-4-oxo-4,5-dihydro-[1,2, 4]triazolo[4,3-a]quinoxaline-1-carboxamide] | 90.3 ± 1.21% | – | –
– | Cc1ccc(-c2cc(C(F)(F)F)nn2-c2ccc(S(N)(=O)=O)cc2)cc1 [Celecoxib] | – | – | % of oedema inhibition (% mean ± SD) ([3]; 1 h): 48.09 ± 5.33%; % of oedema inhibition (% mean ± SD) ([3]; 3 h, 25 mg/kg): 58.34 ± 4.08%; % of oedema inhibition (% mean ± SD) ([3]; 3 h, listed as celecoxib, 25 mg/kg): 58.34%; % of oedema inhibition (% mean ± SD) ([3]; 5 h): 41.92 ± 2.05%
– | Cc1cccc(Oc2nn3c(C(N)=O)nnc3c3ccccc23)c1 [D1] | 96.3 ± 1.72% | – | % of oedema inhibition (% mean ± SD) ([3]; 1 h): 38.26 ± 2.82%; % of oedema inhibition (% mean ± SD) ([3]; 3 h, 25 mg/kg): 42.81% and 42.81 ± 2.11%; % of oedema inhibition (% mean ± SD) ([3]; 5 h): 28.71 ± 2.92%; % ulceration [4]: 20%; inhibition at 10 µM ([2]; Mus musculus, RAW264.7, LPS 1 µg/mL, 24 h, read-out: NO inhibitory activity (% inhibition)): 10.3%
– | CC(C)Cc1ccc(C(C)C(=O)O)cc1 (stereo not shown) [Ibuprofen] | – | – | % of oedema inhibition (% mean ± SD) ([3]; 1 h): 31.92 ± 5.76%; % of oedema inhibition (% mean ± SD) ([3]; 3 h, 25 mg/kg): 39.30 ± 4.86%; % of oedema inhibition (% mean ± SD) ([3]; 3 h, listed as ibuprofen, 25 mg/kg): 39.30%; % of oedema inhibition (% mean ± SD) ([3]; 5 h): 25.29 ± 3.43%
